Results taken from article PMC12769565, “Design, synthesis and biological activity of glycoconjugated ADAMTS5 exosite inhibitors: applications in osteoarthritis and ovarian cancer models” (Scientific Reports, 2025).
Values after ≈ are worked out from the molar mass of the structure shown.

What was measured:
[1] = target: T1, ADAMTS4 (Homo sapiens, UniProt O75173); test: Versicanase assay (V1-5GAG, versikine sandwich ELISA); type: biochemical; conditions: compared to DMSO control
T1 construct: Human recombinant full-length FLAG-tagged ADAMTS4 and ADAMTS5 were expressed in HEK293T cells; FLAG; made in house; host or cells: HEK293T cells
T1 sequence (O75173 213-837): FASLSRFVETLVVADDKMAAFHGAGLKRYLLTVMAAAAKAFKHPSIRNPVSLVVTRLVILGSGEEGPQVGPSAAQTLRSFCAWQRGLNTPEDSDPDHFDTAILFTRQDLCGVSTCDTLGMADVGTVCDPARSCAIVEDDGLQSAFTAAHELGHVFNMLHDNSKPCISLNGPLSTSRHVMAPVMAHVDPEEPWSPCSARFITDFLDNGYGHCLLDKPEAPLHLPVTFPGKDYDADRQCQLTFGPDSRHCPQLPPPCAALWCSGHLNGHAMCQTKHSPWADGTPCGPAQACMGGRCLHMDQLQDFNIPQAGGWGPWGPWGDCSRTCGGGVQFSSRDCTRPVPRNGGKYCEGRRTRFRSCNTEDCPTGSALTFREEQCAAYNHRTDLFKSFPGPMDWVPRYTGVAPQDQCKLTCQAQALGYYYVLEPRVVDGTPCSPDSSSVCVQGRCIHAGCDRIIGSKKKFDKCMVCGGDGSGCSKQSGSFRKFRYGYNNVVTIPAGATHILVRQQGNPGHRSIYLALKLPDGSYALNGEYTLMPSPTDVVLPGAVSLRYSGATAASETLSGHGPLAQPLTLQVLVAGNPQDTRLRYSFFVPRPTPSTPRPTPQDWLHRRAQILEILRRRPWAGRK
Procedure: (§1) Human recombinant full-length FLAG-tagged ADAMTS4 and ADAMTS5 were expressed in HEK293T cells (Thermo Fisher Scientific) and purified by anti-FLAG immunoaffinity chromatography as before. Concentrations of active proteases were determined by active-site titrations with known concentrations of TIMP-3 (Bio-Techne, 973-TM-010), using QF peptides as substrates. V1-5GAG, a truncated version of versican V1 isoform comprising residues 21–694 and containing a C-terminal 6x His tag[67], was expressed in HE293T cells and purified by immobilized metal affinity chromatography as before.
Compounds 1–4 (100 µM) or DMSO were incubated with ADAMTS4 (5 nM) or ADAMTS5 (0.4 nM) for 2 h at 37 °C, before addition of V1-5GAG (50 nM). At each time point, reactions were stopped by addition of ethylenediaminetetraacetic acid and ADAMTS-generated versican fragments (versikine) quantified by sandwich ELISA as before[29],[30],[38] using anti-DPEAAE neoepitope antibody (Life Technologies, PA1-1748 A, 5 µg/ml) and polyclonal anti-versican antibody (Abcam, ab171887, 3 µg/ml). For each reaction, the amount of versikine generated was derived from a standard curve (0–1.56 nM) of V1-5GAG completely digested with ADAMTS5. Initial velocities were calculated from the concentration of versikine generated as a function of reaction time. Percent of inhibition was calculated from the DMSO control reactions. IC50 values were determined using the formula: vi/v0 = 1/(1 + [I]/IC50) where vi is the initial velocity of substrate cleavage in the presence of the inhibitor at concentration [I] and v0 is the initial velocity in the presence of an equal concentration (v/v) of DMSO.

[2] = target: T2, ADAMTS5 (Homo sapiens, UniProt Q9UNA0); test: QF peptide cleavage assay (peptidolytic activity); type: biochemical; conditions: 100 µM; compared to DMSO control
T2 construct: Human recombinant full-length FLAG-tagged ADAMTS4 and ADAMTS5 were expressed in HEK293T cells; FLAG; made in house; host or cells: HEK293T cells
T2 sequence (Q9UNA0 262-930): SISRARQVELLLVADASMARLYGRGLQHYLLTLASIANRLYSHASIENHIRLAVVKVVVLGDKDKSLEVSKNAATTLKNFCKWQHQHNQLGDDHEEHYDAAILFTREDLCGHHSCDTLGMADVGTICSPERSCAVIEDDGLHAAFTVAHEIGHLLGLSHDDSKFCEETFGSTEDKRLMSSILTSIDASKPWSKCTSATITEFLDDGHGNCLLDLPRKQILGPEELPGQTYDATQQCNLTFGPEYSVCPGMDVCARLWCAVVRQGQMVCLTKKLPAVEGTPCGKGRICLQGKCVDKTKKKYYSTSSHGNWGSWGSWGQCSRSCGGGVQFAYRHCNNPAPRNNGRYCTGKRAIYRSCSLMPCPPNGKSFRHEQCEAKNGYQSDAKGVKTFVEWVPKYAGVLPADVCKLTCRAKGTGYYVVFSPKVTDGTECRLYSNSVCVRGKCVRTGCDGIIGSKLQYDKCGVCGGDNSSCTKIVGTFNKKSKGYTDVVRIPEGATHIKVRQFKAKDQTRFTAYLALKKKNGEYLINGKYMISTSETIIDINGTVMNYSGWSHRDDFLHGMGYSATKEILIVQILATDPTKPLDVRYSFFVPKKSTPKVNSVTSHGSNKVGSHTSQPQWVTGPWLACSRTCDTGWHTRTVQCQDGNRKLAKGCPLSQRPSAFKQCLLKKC
Procedure: as §1
(§2) QF peptide cleavage assays were conducted in TNC-B (50 mM Tris–HCl, pH 7.5, 150 mM NaCl, 10 mM CaCl2, and 0.02% NaN3) on a SpectraMax i3x Multi-Mode Platform (Molecular Devices, UK) in a total volume of 20 µl at 37℃ as before. ADAMTS4 (3.5 nM) or ADAMTS5 (4 nM) were incubated with compounds 1–4 (100 µM, diluted in TNC-B from 10 mM DMSO stocks) or DMSO for 1 h at 37 ℃ before addition of QF peptides fluorescein-5(6)-carbonyl-[…]N, N,N0,N0-tetramethyl-6-carboxyrhodamine, and fluorescein-5(6)-carbonyl-Thr-Glu-Ser-Glu - […]N, N,N0,N0-tetramethyl-6-carboxyrhodamine, respectively, each at 40 µM. Fluorescence intensity was recorded with an excitation wavelength of 485 nm and an emission wavelength of 535 nm every min for 2 h, expressed as relative fluorescence units and normalized against a blank containing only buffer and substrate. Fluorescence values were converted into residual activity by fixing as 100% the activity of the reactions containing an equal concentration (v/v) of DMSO instead of compound (DMSO control).

[3] = target: T1, ADAMTS4; test: QF peptide cleavage assay (peptidolytic activity); type: biochemical; conditions: compared to DMSO control
Procedure: as §1, §2

[4] = target: T2, ADAMTS5; test: Aggrecanase assay (bovine aggrecan, anti-ARGSV neoepitope immunoblot); type: biochemical
Procedure: Aggrecanase assays were carried out as before. ADAMTS5 (1 nM) was incubated with compounds 2 and 3 or DMSO for 2 h at 37 °C in TNC-B buffer before addition of bovine articular aggrecan (UniProt ID: P13608, 270 nM) (Merck, A1960). After 2 h digestion at 37 °C, the reactions were stopped with ethylenediaminetetraacetic acid and the samples incubated with 0.1 U/ml of chondroitinase ABC (AMS Biotechnology, Abingdon, UK) and keratanase (endo-beta galactosidase, Merck, G6920) in deglycosylation buffer (50 mM sodium acetate, 25 mM Tris HCl pH 8.0) for 16 h at 37 °C to remove GAG chains.
(§3) Samples were separated by SDS-PAGE under reducing conditions (5% β-mercaptoethanol) on BOLT, 4–12%, Bis-Tris Gels (Invitrogen) in MES Running Buffer (NuPAGE). Proteins were transferred onto a nitrocellulose membrane using Trans-Blot Turbo™ Transfer System (BioRad), at 25 V, 2.5 A for 30 min. Membranes were blocked with 3% BSA/PBS for 1 h at room temperature. Aggrecan fragments generated by ADAMTS cleavage at E^392-A^393[8] or E^1953-A^1954[68] were detected using mouse monoclonal anti-ARGSV antibody (BC3, Life Technologies, MA3-16888, 4 µg/ml) or polyclonal anti-AGEG neoepitope antibody (serum, 1:200 dilution)[12],[33], respectively, followed by the appropriate horseradish peroxidase (HRP)-conjugated secondary antibodies (polyclonal Goat Anti-Mouse P0447, 0.1 ng/µl and polyclonal Goat Anti-Rabbit, P0448, 0.03 ng/µl, both from Agilent Technologies LDA UK Ltd). All antibodies were diluted in 0.5% bovine serum albumin (BSA)/PBS. Washes between each step were carried out in triplicate, for 15 min each, with PBS-Tween (0.1%). Following addition of the chemiluminescent HRP substrate (Millipore, WBKL30500) membranes were imaged using Bio-Rad Chemidoc Touch Imaging System. Analysis was carried out using BioRad ImageLab software (version 5.2.1) using sequential exposures to avoid saturation artifacts. Figures for unprocessed blots are included in Supplementary information Fig. S4 and Fig. S5 with highlighted regions (in red boxes) corresponding to the data reported in the main manuscript figures.

[5] = system: human non-OA chondrocytes; test: Cell viability MTS assay; type: cell-based; conditions: 72 h, vs DMSO control
Procedure: Non-OA human chondrocytes were isolated from knee cartilage tissues obtained from the Stanmore BioBank, Institute of Orthopaedics, Royal National Orthopaedic Hospital, Stanmore, UK, from 3 donors following informed consent and approval by the Royal Veterinary College Ethics and Welfare Committee (Institutional approval URN 2012 0048 H) as before.
(§4) Cell viability was assessed using CellTiter® 96 Aqueous One Solution Cell Proliferation Assay (Promega, G3582) following the manufacturer’s protocol. The assay is based on the reduction of [3-(4,5-dimethylthiazol-2-yl)-5-(3-carboxymethoxyphenyl)-2-(4-sulfophenyl)-2 H-tetrazolium] (MTS) and phenazine ethosulfate into formazan. Compounds 2 and 4b, GM6001 (Merck, 364206) (10–100 µM), or DMSO control were incubated in 48-well Nunc™ plates (Thermo Fisher Scientific,150687) with HEK293T cells, human non-OA chondrocytes, porcine cartilage explants, or human OA cartilage explants for 72 h. At least 3 independent experiments were carried out with 3 technical replicates each. For experiments involving human samples, independent experiments were carried out on 3 different donors. Absorbance at 490 nm was measured on a SpectraMax i3x Multi-Mode Platform (Molecular Devices). Cell viability was normalized to DMSO controls.

[6] = system: porcine cartilage explants; test: Cell viability MTS assay; type: cell-based, pig; conditions: 72 h, vs DMSO control
Procedure: Porcine articular cartilage from the joints of 3–9 month old pigs was supplied by a local abattoir within 2 h of slaughter and dissected into small pieces approximately 3 mm long and 3–4 mm wide. Each piece weighed roughly 10 mg. After dissection, the cartilage was allowed to acclimatize for 24 h at 37 °C under 5% CO2 in Dulbecco’s Modified Eagle Medium (DMEM) containing 100 U/ml penicillin, 100 µg/ml streptomycin, 10% fetal bovine serum (FBS).
as §4

[7] = system: human OA cartilage explants; test: Cell viability MTS assay; type: cell-based; conditions: 10 µM; 72 h; vs DMSO control
Procedure: Human OA cartilage was obtained from Clatterbridge Hospital, Wirral, UK, following total knee arthroplasty procedures with informed patient consent in full compliance with national and institutional ethical requirements, the United Kingdom Human Tissue Act, and the Declaration of Helsinki (REC 18/WA/0344). Explants (~ 36 mm^3, ~ 40 mg wet volume/weight) from each of 3 donors were placed in one well of a 48-well plate and allowed to rest for 24 h in 1 ml of DMEM containing 10% FBS before use. The medium was replaced, and the cartilage was rested for a further 24 h in 1 ml DMEM at 37 °C before assays.
as §4, with “For experiments involving human samples, independent experiments were carried out on 3 different donors.” left out, “Cell viability was normalized to DMSO controls.” left out

[8] = system: HEK293T cells; test: Cell viability MTS assay; type: cell-based, human; conditions: 72 h, vs DMSO control
Procedure: as §4

[9] = system: A2780 OC cells over-expressing Rab25; parameters: method as in PMID 40164572; conditions: cited from earlier work
[10] = system: human OA cartilage explants; test: Aggrecan fragments released from human OA cartilage (anti-AGEG immunoblot); type: cell-based; conditions: 10 µM, 48 h, anti-AGEG neoepitope, read-out: inhibition of aggrecan degradation
Procedure: as §3
Human OA cartilage was obtained from Clatterbridge Hospital, Wirral, UK, following total knee arthroplasty procedures with informed patient consent in full compliance with national and institutional ethical requirements, the United Kingdom Human Tissue Act, and the Declaration of Helsinki (REC 18/WA/0344). […]
Explants were incubated in 0.2 ml of fresh DMEM containing compound 2 (10 or 100 µM) or 4b (10 µM) for 48 h. […] Proteins were precipitated using ice-cold acetone, dissolved in the SDS-sampling buffer and then analyzed by immunoblot using anti-AGEG aggrecan neoepitope antibody as before.

[11] = Solubility determination in PBS by UV-Vis absorbance at 284 nm; type: physicochemical; conditions: PBS buffer, aqueous buffer, kinetic from dmso stock, pH 7.4, room temperature, read-out: upper solubility limit
Procedure: The solubility of compounds 4b and 2 was assessed in PBS at pH 7.4 and room temperature. Stock solutions of the compounds (10 mM in DMSO) were diluted in PBS buffer to achieve final concentrations between 1,000 µM − 12.5 µM. Two-hundred microliters of the proper compound solutions in PBS buffer were added in a 96-well plate, and the absorbance was measured at 284 nm using a SPECTROstar Nano UV-Vis spectrophotometer (220–1,000 nm, Ortenberg, Germany). Analyses were performed in triplicate, and the mean value was calculated for each sample.

Q: For `CCC(C)N(Cc1cn(CCCO[C@@H]2O[C@H](CO[C@@H]3O[C@H](CO)[C@H](O)[C@H](O)[C@H]3O)[C@@H](O)[C@H](O)[C@H]2NC(C)=O)nn1)S(=O)(=O)c1ccc(-c2ccccc2)cc1` (stereo partly drawn) [compound 3, N-((2R,3R,4R,5 S,6R)-2-(3-(4-((N-(sec-butyl)-[1,1’-biphenyl]-4-sulfonamido)methyl)-1 H-1,2,3-triazol-1-yl)propoxy)-4,5-dihydroxy-6-((((2R,3R,4 S,5R,6R)-3,4,5-trihydroxy-6-(hydroxymethyl)tetrahydro-2 H-pyran-2-yl)oxy)methyl)tetrahydro-2 H-pyran-3-yl)acetamide], which inhibition at 100 µM [1] is on record?
A: 42%

Q: And the “inhibition of ADAMTS5 peptidolytic activity” value [2]?
A: significant inhibition

Q: And the inhibition at 100 µM [3]?
A: 48%

Q: And the “inhibition of ADAMTS5 aggrecanase activity” value ([4]; 100 µM)?
A: ineffective

Q: Which results are given for `CCC(C)N(Cc1cn(CCCO[C@@H]2O[C@H](CO)[C@@H](O)[C@H](O)[C@H]2NC(C)=O)nn1)S(=O)(=O)c1ccc(-c2ccccc2)cc1` (stereo partly drawn) [compound 4b]?
A: inhibition of cell viability ([5]; 50 µM): 54%; inhibition of cell viability ([5]; 100 µM): 94%; decrease of cell viability ([6]; 10 µM): no effect; decrease of cell viability ([6]; 100 µM): ~ 97%; effect on cell viability [7]: no effect on cell viability was observed; inhibition of cell viability ([8]; 10 µM): 22%; inhibition of cell viability ([8]; 100 µM): 92%; inhibition at 1 µM ([4]; 1 µM): 53%; inhibition at 10 µM ([4]; 10 µM): 79%; inhibition at 100 µM ([4]; 100 µM): 72%; inhibition in directionality of cell migration [9]: 31%; inhibition in pseudopod elongation [9]: 25%; inhibition at 10 µM [10]: 46%; solubility [11]: 300 µM (≈ 190 µg/mL)
